Data set [1] concerns A. castellanii (ATCC-30868) trophozoites. The data set is described as follows: In vitro anti-Acanthamoeba activity, A. castellanii trophozoite viability. The following applies: for IC50: mean±SD of 3 independent experiments; for SI, sensitivity index (CC50 C6 glial cells / IC50 A. castellanii): ratio CC50 C6 glial cells / IC50 A. castellanii; for antiamoebic activity against A. castellanii (in words): in vitro. It is filed as cell-based.

Data set [2] can be described thus: Cytotoxicity against C6 glial cells. The following applies: rat, C6 glial cells. Type of data set: cell-based, rat.
Data set [3] has as its system A. polyphaga (ATCC-30461) trophozoites. The experiment in a line: In vitro anti-Acanthamoeba activity, A. polyphaga trophozoite viability. The following applies: for IC50: mean±SD of 3 independent experiments; for SI, sensitivity index (CC50 C6 glial cells / IC50 A. polyphaga): ratio CC50 C6 glial cells / IC50 A. polyphaga; for antiamoebic activity against A. polyphaga (in words): in vitro. Type of data set: cell-based.

The subject of data set [4] is Naegleria fowleri trophozoites (Carter NF69 strain, ATCC 30215). The experiment in a line: In vitro anti-N. fowleri activity, trophozoite viability. It is filed as cell-based. The following applies: for IC50: mean±SD of 3 independent experiments; for SI, sensitivity index (CC50 C6 glial cells / IC50 N. fowleri): ratio CC50 C6 glial cells / IC50 N. fowleri; for antiamoebic activity against N. fowleri (in words): in vitro.

The mark [5] stands for this setting: Acanthamoeba castellanii, ATCC30868, 48 h, read-out: A. castellanii (IC50 ±SD, μM), trophozoites, 0–400 μM, 25°C, 48 h.
[6] abbreviates: read-out: A. castellanii (IC50 ±SD), trophozoites, 0–400 μM, 25°C, 48 h.
Setting [7] is: Acanthamoeba polyphaga, ATCC30461, 48 h, read-out: A. polyphaga (IC50 ±SD, μM), trophozoites, 0–400 μM, 25°C, 48 h.
The mark [8] stands for this setting: read-out: A. polyphaga (IC50 ±SD), trophozoites, 0–400 μM, 25°C, 48 h.
[9] abbreviates: Naegleria fowleri, ATCC30215, 48 h, read-out: N. fowleri (IC50 ±SD, μM), trophozoites, 0–400 μM, 37°C, 48 h.
Setting [10] is: trophozoites, listed as berberine.
[11] abbreviates: read-out: N. fowleri (IC50 ±SD), trophozoites, 0–400 μM, 37°C, 48 h.

Several values for one entry are separate records, joined by “and”; a condition that tells them apart may be missing. Equal entries are not always repeated. Where two headings read alike, the source gives them in different places.

Consider `Oc1cc(O)c2c(c1)O[C@H](c1ccc(O)c(O)c1)[C@H](O)C2` [(−)-Epicatechin, (−)-epicatechin], for which the IC50 (usually the midpoint of a concentration-inhibition curve) is under 50 µM in data set [1] (setting [5]); 33.4 ± 0.68 µM in data set [1] (setting [6]); under 50 µM in data set [3] (setting [7]); 25.02 ± 0.14 µM in data set [3] (setting [8]); 102.6 ± 0.97 µM in data set [4] (setting [9]). The “SI, sensitivity index (CC50 C6 glial cells / IC50 A. castellanii)” value was 9.55 in data set [1] and over 8 in data set [1] (listed as (−)-epicatechin). In data set [2], it took 318.6 ± 0.82 µM to reach half-maximal cytotoxicity (CC50). Moreover, the “SI, sensitivity index (CC50 C6 glial cells / IC50 A. polyphaga)” value is 12.73 in data set [3] and over 8 in data set [3] (listed as (−)-epicatechin). Further, the “SI, sensitivity index (CC50 C6 glial cells / IC50 N. fowleri)” value in data set [4] amounted to 3.11. Also, in data set [4] (trophozoites), the “antiamoebic activity against N. fowleri (in words)” value is listed as “did not show significative anti-N. fowleri activities”.
Consider `C=C1CC/C=C(\C)CC[C@@H]2[C@@H]1CC2(C)C` [(−)-trans-Caryophyllene, (−)-trans-caryophyllene], for which the IC50 in data set [1] (setting [5]) was determined as 65.1 ± 1.42 µM; in data set [3] (setting [7]) it was 44.8 ± 1.41 µM; in data set [4] (setting [9]), 84.78 ± 0.65 µM. In addition, the “SI, sensitivity index (CC50 C6 glial cells / IC50 A. castellanii)” value in data set [1] is on record as 3.39. Besides, in data set [2], the CC50 – broadly, the concentration at which the toxic effect on the cells reaches its halfway point – worked out at 220 ± 2.42 µM. In data set [3], the “SI, sensitivity index (CC50 C6 glial cells / IC50 A. polyphaga)” value came to 4.92. Also, the “SI, sensitivity index (CC50 C6 glial cells / IC50 N. fowleri)” value in data set [4] is listed as 2.60.
Take `C[C@@H]1O[C@@H](Oc2c(-c3ccc(O)cc3)oc3cc(O)cc(O)c3c2=O)[C@H](O)[C@H](O)[C@H]1O` [Afzelin, afzelin]: the IC50 in data set [1] (setting [5]), in data set [3] (setting [7]) and in data set [4] (setting [9]) was over 230 µM each time. In data set [1] (trophozoites), the “antiamoebic activity against A. castellanii (in words)” value is given as “did not exhibit potential or selective antiamoebic activity”. This molecule had a half-maximal cytotoxic concentration (CC50) in data set [2] of over 230 µM. Further, the “antiamoebic activity against A. polyphaga (in words)” value in data set [3] (trophozoites) is listed as “did not exhibit potential or selective antiamoebic activity”.
Take `CC[C@H]1OC(=O)[C@H](C)[C@@H](O[C@H]2C[C@@](C)(OC)[C@@H](O)[C@H](C)O2)[C@H](C)[C@@H](O[C@@H]2O[C@H](C)C[C@H](N(C)C)[C@H]2O)[C@](C)(O)C[C@@H](C)CN(C)[C@H](C)[C@@H](O)[C@]1(C)O` [Azithromycin, Azithromycin dihydrate, reference compound]: the IC50 in data set [1] (setting [5]) amounted to 12.1 ± 0.2 µM; in data set [3] (setting [7]), 4.12 ± 0.11 µM; in data set [4] (setting [9]), 14.7 ± 1.65 µM. Further, the “SI, sensitivity index (CC50 C6 glial cells / IC50 A. castellanii)” value in data set [1] is 7.12. Further, half-maximal cytotoxicity in data set [2] (CC50) was put at 86.2 ± 0.93 µM. Besides, in data set [3], the “SI, sensitivity index (CC50 C6 glial cells / IC50 A. polyphaga)” value turned out to be 20.93. For the same molecule, in data set [4], the “SI, sensitivity index (CC50 C6 glial cells / IC50 N. fowleri)” value was determined as 5.88.
Take `COc1ccc2cc3[n+](cc2c1OC)CCc1cc2c(cc1-3)OCO2` [Berberine, berberine]: the IC50 in data set [1] (setting [5]), in data set [3] (setting [7]) and in data set [4] (setting [9]) was over 260 µM throughout. For the same molecule, the figures for the “antiamoebic activity against A. castellanii (in words)” value in data set [1] (trophozoites) and in data set [1] (setting [10]) were “did not affect” and “did not exhibit potential or selective antiamoebic activity”, respectively. The molecule further registered a CC50 in data set [2] of 159.7 ± 1.23 µM. Besides, the “antiamoebic activity against A. polyphaga (in words)” value is on record as “did not affect” in data set [3] (trophozoites) and “did not exhibit potential or selective antiamoebic activity” in data set [3] (setting [10]). Also, the “antiamoebic activity against N. fowleri (in words)” value in data set [4] (trophozoites) was “did not affect”.
Turning to `C=C1C(=O)O[C@@H]2/C=C(\C)CC/C=C(\C)CC[C@@H]12` [Costunolide, costunolide], the IC50 in data set [1] (setting [5]) was under 50 µM; in data set [1] (setting [6]) it was 32 ± 1.14 µM; in data set [3] (setting [7]) it was under 50 µM; in data set [3] (setting [8]), 35.1 ± 0.74 µM; in data set [4] (setting [9]), 65.56 ± 0.58 µM. Besides, the “SI, sensitivity index (CC50 C6 glial cells / IC50 A. castellanii)” value in data set [1] is recorded as 5.97. The molecule also gave a CC50 in data set [2] of 191.2 ± 1.18 µM. Also, the “SI, sensitivity index (CC50 C6 glial cells / IC50 A. polyphaga)” value in data set [3] amounted to 5.44. Further, in data set [4], the “SI, sensitivity index (CC50 C6 glial cells / IC50 N. fowleri)” value is recorded as 2.92.
As for `O=c1c(-c2ccc(O)cc2)coc2cc(O)cc(O)c12` [Genistein, genistein], the IC50 in data set [1] (setting [5]) is over 370 µM; in data set [3] (setting [7]), over 370 µM; in data set [4] (setting [9]) it was 157.4 ± 0.57 µM. Further, the “antiamoebic activity against A. castellanii (in words)” value in data set [1] (trophozoites) is “did not exhibit potential or selective antiamoebic activity”. In data set [2], this molecule registered a CC50 of 104 ± 1.08 µM. In data set [3] (trophozoites), the “antiamoebic activity against A. polyphaga (in words)” value is given as “did not exhibit potential or selective antiamoebic activity”. The “SI, sensitivity index (CC50 C6 glial cells / IC50 N. fowleri)” value in data set [4] stood at 0.66.
With `O=c1c(O)c(-c2ccc(O)cc2)oc2cc(O)cc(O)c12` [Kaempferol, kaempferol], the entries for the “SI, sensitivity index (CC50 C6 glial cells / IC50 A. castellanii)” value in data set [1] and in data set [1] (listed as kaempferol) were 15.43 and over 8, respectively. Also, the IC50 in data set [1] (setting [6]) is 21.6 ± 1.28 µM; in data set [1] (read-out: A. castellanii (IC50 ±SD), trophozoites, 0–400 μM, 25°C, 48 h, listed as kaempferol) it was under 40 µM; in data set [3] (setting [7]), under 50 µM; in data set [3] (setting [8]), 28.6 ± 1.17 µM; in data set [3] (read-out: A. polyphaga (IC50 ±SD), trophozoites, 0–400 μM, 25°C, 48 h, listed as kaempferol), under 40 µM; in data set [4] (setting [9]), under 30 µM. Also, the IC50 is 27.8 ± 0.33 µM in data set [4] (setting [11]) and under 40 µM in data set [4] (read-out: N. fowleri (IC50 ±SD), trophozoites, 0–400 μM, 37°C, 48 h, listed as kaempferol). Also, the cytotoxic concentration (CC50) in data set [2] came to 333.8 ± 0.99 µM. Moreover, the entries for the “SI, sensitivity index (CC50 C6 glial cells / IC50 A. polyphaga)” value in data set [3] and in data set [3] (listed as kaempferol) were 11.67 and over 8, respectively. Besides, the “SI, sensitivity index (CC50 C6 glial cells / IC50 N. fowleri)” value was 12.00 in data set [4]; > 7 and > 8 in data set [4] (listed as kaempferol).
As to `O=c1cc(-c2ccc(O)c(O)c2)oc2cc(O)cc(O)c12` [Luteolin, luteolin], the IC50 in data set [1] (setting [5]) is over 350 µM; in data set [3] (setting [7]) it was 40.2 ± 0.47 µM; in data set [4] (setting [9]) it was under 30 µM; in data set [4] (setting [11]), 27.4 ± 0.61 µM. Also, the “antiamoebic activity against A. castellanii (in words)” value in data set [1] (trophozoites) is recorded as “not effective”. The CC50 in data set [2] was over 350 µM. In data set [3] (trophozoites), the “antiamoebic activity against A. polyphaga (in words)” value is given as “effective”.
Turning to `CCCCCCCCCCCCCCCCOP(=O)([O-])OCC[N+](C)(C)C` [Miltefosine, miltefosine, reference compound], the IC50 in data set [1] (setting [5]) amounted to 213.2 ± 1.22 µM; in data set [3] (setting [7]) it was 227.5 ± 0.36 µM; in data set [4] (setting [9]) it was 153.3 ± 1.3 µM. Further, the “SI, sensitivity index (CC50 C6 glial cells / IC50 A. castellanii)” value in data set [1] is listed as over 1.15. For the same molecule, the CC50 in data set [2] is over 245 µM. Moreover, in data set [3], the “SI, sensitivity index (CC50 C6 glial cells / IC50 A. polyphaga)” value was over 1.08. Also, the “SI, sensitivity index (CC50 C6 glial cells / IC50 N. fowleri)” value in data set [4] is over 1.60.
For `O=c1c(O)c(-c2ccc(O)c(O)c2)oc2cc(O)cc(O)c12` [Quercetin, quercetin], the values for the 50% inhibitory concentration (IC50) in data set [1] (setting [5]), in data set [3] (setting [7]) and in data set [4] (setting [9]) were over 330 µM, 320.8 ± 0.33 µM and over 330 µM, respectively. Also, in data set [1] (trophozoites), the “antiamoebic activity against A. castellanii (in words)” value is given as “did not exhibit potential or selective antiamoebic activity”. In data set [2], this molecule gave a CC50 of over 330 µM. For the same molecule, the “SI, sensitivity index (CC50 C6 glial cells / IC50 A. polyphaga)” value in data set [3] is listed as over 1.03. Moreover, the “antiamoebic activity against A. polyphaga (in words)” value in data set [3] (trophozoites) is given as “did not exhibit potential or selective antiamoebic activity”.
As for `O=C(/C=C/c1ccc(O)c(O)c1)O[C@H](Cc1ccc(O)c(O)c1)C(=O)O` [Rosmarinic acid, rosmarinic acid], the IC50 is under 50 µM in data set [1] (setting [5]); 31.66 ± 0.31 µM in data set [1] (setting [6]); 22.4 ± 0.78 µM in data set [3] (setting [8]); under 50 µM in data set [3] (read-out: A. polyphaga (IC50 ±SD), trophozoites, 0–400 μM, 25°C, 48 h, listed as rosmarinic acid); 77.7 ± 0.97 µM in data set [4] (setting [9]). In addition, the “SI, sensitivity index (CC50 C6 glial cells / IC50 A. castellanii)” value in data set [1] is over 8.77; in data set [1] (listed as rosmarinic acid), over 8. Moreover, the CC50 in data set [2] was over 278 µM. Further, the “SI, sensitivity index (CC50 C6 glial cells / IC50 A. polyphaga)” value in data set [3] is recorded as over 12.38; in data set [3] (listed as rosmarinic acid), over 8. In addition, the “SI, sensitivity index (CC50 C6 glial cells / IC50 N. fowleri)” value in data set [4] is recorded as over 3.57. In addition, the “antiamoebic activity against N. fowleri (in words)” value in data set [4] (trophozoites) was “did not show significative anti-N. fowleri activities”.

(Values after article PMC10693969 (Parasites, Hosts and Diseases, 2023).)
